In US20230151106A1, “OFATUMUMAB FOR TREATING MS WHILE MAINTAINING SERUM IgG” (NOVARTIS AG, priority 2020, published 2023):

Experiments:
CD19+ B-cells = experiment: CD19+ B-cell depletion in ASCLEPIOS; assay type: in vivo, human
Description: ASCLEPIOS I and II are double-blind, double-dummy, active comparator-controlled, parallel-group, innovative, adaptive design, multicentre trials. Patients were randomised (1:1) to receive either ofatumumab 20 mg sc injections every 4 weeks (after an initial loading regimen of 20 mg sc doses on Days 1, 7 and 14) or teriflunomide 14 mg orally once daily, for up to 30 months. […] Patients aged 18-55 years with an Expanded Disability Status Scale (EDSS) score (according to Kurtzke, Neurology. 1983, Nov; 33(11): 1444-52) of 0-5.5 at screening who experienced ≥1 relapse in the past year or ≥2 relapses in the past 2 years or a positive gadolinium-enhancing (Gd+) MRI scan during the year before randomisation were included.

serum IgM = experiment: Serum IgM levels in ASCLEPIOS I/II (Pool C2); assay type: in vivo, human; conditions: any time post-baseline, FIG. 9
Description: In the present application serum Ig levels can preferably be determined by immunoturbidimetry. Preferably a Roche cobas® Analyzer was used, especially module c of the cobas® analyser.
(§1) Serum samples were preferably kept at 2-8° C. before measurement.
ASCLEPIOS I and II are double-blind, double-dummy, active comparator-controlled, parallel-group, innovative, adaptive design, multicentre trials. Patients were randomised (1:1) to receive either ofatumumab 20 mg sc injections every 4 weeks (after an initial loading regimen of 20 mg sc doses on Days 1, 7 and 14) or teriflunomide 14 mg orally once daily, for up to 30 months.

serum IgG = experiment: Serum IgG levels in ASCLEPIOS I/II (Pool C2)
Description: In the present application serum Ig levels can preferably be determined by immunoturbidimetry. Preferably a Roche cobas® Analyzer was used, especially module c of the cobas® analyser. In a preferred embodiment Ig levels can be determined by using a cobas® c 311 analyzer. It is further preferred that IgG measurements are carried out as described in the cobas® leaflet “IGG-2 Tina-quant IgG Gen. 2”, preferably version 11.0 dated 2016-02 and IgM measurements as described in the leaflet “IGM-2 Tina-quant IgM Gen. 2”, preferably version 13.0 dated 2018-11.
as §1
Patients were randomised (1:1) to receive either ofatumumab 20 mg sc injections every 4 weeks (after an initial loading regimen of 20 mg sc doses on Days 1, 7 and 14) or teriflunomide 14 mg orally once daily, for up to 30 months.
(§2) Serum IgG/IgM levels were monitored at baseline, Week (W) 4, W12 and every 12 weeks, see FIG. 1.

[1] = system: multiple sclerosis patients; experiment: Infections in relation to IgM/IgG levels <LLN vs >=LLN in ofatumumab MS studies
Description: as §2

IgG levels = experiment: Metanalysis of Example 1 versus Derfuss et al. (pooled OPERA), IgG levels; assay type: in vivo, human; conditions: in vivo
Description: In a metanalysis, the results of Example 1 and the results obtained by Derfuss et al. were compared.

[2] = system: multiple sclerosis patients; conditions: in vivo; cited from earlier work
MS patients = conditions: cited from earlier work
[3] = anytime during post baseline visit
[4] = Ofatumumab N=134, Teriflunomide N=214
[5] = after the last infusion, 51 patients from MS clinical studies

C/C(O)=C(\C#N)C(=O)Nc1ccc(C(F)(F)F)cc1 [teriflunomide]
patients with CD19+ B-cells below LLN (CD19+ B-cells; Week 1): (2.0) %
patients with CD19+ B-cells below LLN, n/M (CD19+ B-cells; Week 1): 9/443
patients with CD19+ B-cells below LLN (CD19+ B-cells; Week 2): (1.6) %
patients with CD19+ B-cells below LLN, n/M (CD19+ B-cells; Week 2): 7/437
patients with CD19+ B-cells below LLN (CD19+ B-cells; Week 4): (3.2) %
patients with CD19+ B-cells below LLN, n/M (CD19+ B-cells; Week 4): 14/444
patients with CD19+ B-cells below LLN (CD19+ B-cells; Week 12): (3.0) %
patients with CD19+ B-cells below LLN, n/M (CD19+ B-cells; Week 12): 13/439
patients with CD19+ B-cells below LLN (CD19+ B-cells; Week 24): (2.1) %
patients with CD19+ B-cells below LLN, n/M (CD19+ B-cells; Week 24): 9/419
patients with CD19+ B-cells below LLN (CD19+ B-cells; Week 36): (1.2) %
patients with CD19+ B-cells below LLN, n/M (CD19+ B-cells; Week 36): 5/408
patients with CD19+ B-cells below LLN (CD19+ B-cells; Week 48): (1.3) %
patients with CD19+ B-cells below LLN, n/M (CD19+ B-cells; Week 48): 5/394
patients with CD19+ B-cells below LLN (CD19+ B-cells; Week 60): (2.1) %
patients with CD19+ B-cells below LLN, n/M (CD19+ B-cells; Week 60): 8/382
patients with CD19+ B-cells below LLN (CD19+ B-cells; Week 72): (1.0) %
patients with CD19+ B-cells below LLN, n/M (CD19+ B-cells; Week 72): 3/304
patients with CD19+ B-cells below LLN (CD19+ B-cells; Week 84): (2.1) %
patients with CD19+ B-cells below LLN, n/M (CD19+ B-cells; Week 84): 4/195
patients with CD19+ B-cells below LLN (CD19+ B-cells; Week 96): (0.8) %
patients with CD19+ B-cells below LLN, n/M (CD19+ B-cells; Week 96): 1/121
patients with CD19+ B-cells below LLN (CD19+ B-cells; Week 108): (4.5) %
patients with CD19+ B-cells below LLN, n/M (CD19+ B-cells; Week 108): 3/67
patients with CD19+ B-cells below LLN, n/M (CD19+ B-cells; Week 120): 0/16
patients with B-cells below LLN (CD19+ B-cells; throughout the study Treatment epoch): up to 4.5%
patients with IgM levels on or above the LLN (serum IgM): > 90%
change in mean serum IgG value from baseline (serum IgG; Week 96): -0.421 g/L
decrease in mean IgG value from baseline (serum IgG; Week 96): 4.1%
patients with IgG levels on or above the LLN (serum IgG; any time post-baseline, FIG. 9): > 77%
patients with IgG below LLN, n/N (serum IgG; [3]): 214/934
proportion of patients with IgG below LLN (serum IgG; [3]): 22.9%
Infections observed after the first drop of IgG<LLN [1, 4]: 36.4%
Infections observed after the first drop of IgG<LLN, number of patients [1, 4]: 78
patients who reported an infection post study drug discontinuation ([1]; among patients who discontinued treatment for Ig decline): 2 of 7

ocrelizumab: anti-CD20 monoclonal antibody with a humanized antibody backbone, approved for relapsing and primary progressive MS
effect on IgG levels on the long term (IgG levels): leads to a reduction of IgG levels
approximate mean rate of reduction in serum Ig levels [2]: 3-4 % per year
infection rate, association with IgG, first value [2]: 6.50 /100PY
infection rate, association with IgG, second (vs) value [2]: 2.11 /100PY
infection rate, association with IgM, first value [2]: 3.66 /100PY
infection rate, association with IgM, second (vs) value [2]: 1.88 /100PY
median time for B-cell counts to return to either baseline or LLN (MS patients; [5]): 72 weeks
range of time for B-cell counts to return to either baseline or LLN (MS patients; [5]): 27-175 weeks
effect on total immunoglobulins (MS patients; in vivo): decrease in total immunoglobulins
malignancies compared to control groups (MS patients; in vivo): increased number of malignancies
patients whose B-cell counts rose to either baseline or LLN (MS patients; within 2.5 years after the last infusion): 90%
